Converted amounts (≈) assume the structure as drawn. “And” between values parts separate entries of the source, which are not always exact repeats. Equal values may be shown once. Read-outs that look alike come from different tables or passages of the source.
Experiments:
AKR1C3 [1] = biological target: T1, AKR1C3 (Homo sapiens (Human), UniProt P42330); test: AKR1C3 enzyme assay (coumberone reduction, fluorescence); type: biochemical; conditions: recombinant human AKR1C3, coumberone 0.3 μM, NADPH 10 μM; read-out: AKR1C3 enzyme inhibition IC50
T1 sequence (P42330 whole entry): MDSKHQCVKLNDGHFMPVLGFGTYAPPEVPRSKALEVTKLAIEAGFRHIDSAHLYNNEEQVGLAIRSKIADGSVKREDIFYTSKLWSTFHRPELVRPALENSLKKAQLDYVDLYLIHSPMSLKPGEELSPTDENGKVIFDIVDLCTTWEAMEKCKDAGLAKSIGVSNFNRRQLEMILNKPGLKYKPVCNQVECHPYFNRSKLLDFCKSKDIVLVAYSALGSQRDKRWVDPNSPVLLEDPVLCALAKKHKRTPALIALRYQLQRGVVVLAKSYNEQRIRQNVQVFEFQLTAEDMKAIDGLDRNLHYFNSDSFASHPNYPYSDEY
Procedure: The AKR1C3-inhibitory action of the substances of this invention was measured in the AKR1C3 assay described in the paragraphs which follow. Essentially, the enzyme activity is measured by quantifying the coumberol formed from coumberone ([…]., and […]. AM. CHEM. SOC. 130, 14123-14128 (2008) […]., Bauman, D. R., Penning, T. M., and […]., Proc. Natl. Acad. Sci. USA 103, 13304-13309 (2006)). In this assay, the increase in the highly fluorescent coumberol can be determined by NADPH (nicotinamide adenine dinucleotide phosphate)-dependent reduction of the nonfluorescent coumberone by AKR1C3. […] NM_003739). This was expressed as the GST (glutathione S-transferase) fusion protein in E. coli and purified by means of glutathione-Sepharose affinity chromatography. The GST was removed by thrombin digestion with subsequent size exclusion chromatography (Dufort, I., Rheault, P., Huang, X F., Soucy, P., and Luu-The, V., Endocrinology 140, 568-574 (1999)). […] The concentration of the AKR1C3 was matched to the respective activity of the enzyme preparation and set such that the assay worked within the linear range. Typical concentrations were in the region of 1 nM. The reaction was stopped by adding 5 μl of a stop solution consisting of the inhibitor EM-1404 [F. Labrie et al. U.S. Pat. […] Subsequently, the fluorescence of coumberol was measured at 520 nm (excitation at 380 nm) with a suitable measuring instrument (Pherastar from BMG Labtechnologies).

AKR1C3 [2] = biological target: T1, AKR1C3; test: AKR1C3 inhibition in a cell-based system (transfected HEK293 cells, coumberol fluorescence); conditions: HEK293 cells transfected with AKR1C3 expression plasmid; read-out: Cellular AKR1C3 inhibition IC50
Procedure: The inhibition of AKR1C3 by the substances described in this invention was measured in a cell-based assay using […] as the substrate for the AKR1C3 (Halim, M., Yee, D. J., and Sames, D., J. AM. CHEM. SOC. 130, 14123-14128 (2008) and Yee, D. J., Balsanek, V., Bauman, D. R., Penning, T. M., and Sames, D., Proc. Natl. Acad. Sci. USA 103, 13304-13309 (2006)) (cf. Example 48).
The cell system used was HEK293 cells (ATCC, USA) (cell culture medium: DMEM, 1.5 g of glucose, 10% FCS, PSG). The cells were transfected with an AKR1C3 expression plasmid (pCMV6-AC-AKR1C3, GenBank Accession No. NM_003739.4) overnight (X-tremeGENE HP, Roche). The next morning, the cells were sown into black 96-well culture plates with a cell density of 40 000 cells/well (Greiner Bio-One, Frickenhausen, Germany). 7 h later, the cells were incubated with the test substances (dissolved in 100× concentration in DMSO, final concentration between 10^−11M and 10^−5M) and […] (dissolved in cell culture medium, final concentration 5×10^−6M) overnight. The following morning, the fluorescence of coumberol was measured at 535 nm (excitation at 355 nm) with a suitable measuring instrument (Mithras, from Berthold). […] The data were normalized (transfected cells without inhibitor, only DMSO=0% inhibition; transfected cells, 10 μM EM-1404 inhibitor [F. Labrie et al. U.S. Pat. No. 6,541,463, 2003]=100% inhibition) and IC50 values were calculated by a 4-parameter fit.

[3] = Kinetic solubility by laser nephelometry; type: physicochemical; conditions: kinetic from dmso stock
Procedure: The kinetic solubilities of the inventive substances were determined by laser nephelometry.
The data were recorded using the following instruments:
Liquid handling system: Hamilton Star
Nephelometer: Nepheloskan Ascent
The following chemicals and materials were used: […]
disodium hydrogenphosphate dihydrate potassium dihydrogenphosphate
Preparation of phosphate buffer pH 7.4:
• Solution 1: 9.71 g of disodium hydrogenphosphate dihydrate and • 1.65 g of potassium dihydrogenphosphate dissolved in 1 liter of water • Solution 2: 10 mg of gum arabic dissolved in 1 liter of water […]
150 ml of solution 1 and 100 ml of solution 2 were diluted with 750 ml of water.
150 μl of a 10 mM DMSO stock solution were pipetted into a plate (deep-well plate, Abgene, PP, 1.2 ml). The stock solution was diluted with DMSO, which led to a new multi-titre plate (MTP, Greiner bio-one, PS, V-Form) with eight concentrations: 10/5/2.5/1.25/0.625/0.313/0.156 and 0.078 mM. 261 μl of phosphate buffer were transferred into a further plate (96 cliniplate, UB Thermo Electron Corporation) and admixed with 9 μl of the DMSO stock solutions.
The concentration of the DMSO cosolvent was kept constant at 3%.
The plates obtained (cliniplates) were analysed in the nephelometer.

[4] = phosphate buffer with 3% DMSO, aqueous buffer, phosphate buffer pH 7.4, 3% DMSO, read-out: Nephelometric solubility at pH = 7.4

SMILES	IC50 (AKR1C3 [1])	IC50 (AKR1C3 [2])	solubility [3, 4]	solubility ([3]; pH 7.4, aqueous buffer)
C[C@]12C[C@H](F)[C@@H]3c4ccc(C(N)=O)cc4CC[C@H]3[C@@H]1CC=C2c1cncc(F)c1 [Example 7, 11β-fluoro-17-(5-fluoropyridin-3-yl)oestra-1,3,5(10),16-tetraene-3-carboxamide]	27 nM	83 nM and 150 nM	–	–
C[C@]12CC[C@@H]3c4ccc(C(=O)NC[C@H](O)CO)cc4CC[C@H]3[C@@H]1CC=C2c1cncc(F)c1 [Example 33, N—[(S)-2,3-dihydroxypropyl]-17-(5-fluoropyridin-3-yl)oestra-1,3,5(10),16-tetraene-3-carboxamide]	4 nM and 5 nM	–	80 µg/mL (≈ 178 µM)	–
C[C@]12CC[C@@H]3c4ccc(C(=O)N5CCC[C@@H](O)C5)cc4CC[C@H]3[C@@H]1CC=C2c1cncc(F)c1 [Example 17, 17-(5-fluoropyridin-3-yl)oestra-1,3,5(10),16-tetraen-3-yl (R)-3-hydroxypiperidin-1-yl ketone]	29 nM and 20 nM	34 nM and 28 nM	–	–
C[C@]12CC[C@@H]3c4ccc(C(=O)NCCc5nnn[nH]5)cc4CC[C@H]3[C@@H]1CC=C2c1cncc(F)c1 [Example 21, 17-(5-fluoropyridin-3-yl)-N-[2-(1H-tetrazol-5-yl)ethyl]oestra-1,3,5(10),16-tetraene-3-carboxamide]	5 nM	–	–	158 µg/mL (≈ 334 µM)
CC1(CNC(=O)c2ccc3c(c2)CC[C@@H]2[C@@H]3CC[C@]3(C)C(c4cncc(F)c4)=CC[C@@H]23)COC1 [Example 43, 17-(5-fluoropyridin-3-yl)-N-[(3-methyloxetan-3-yl)methyl]oestra-1,3,5(10),16-tetraene-3-carboxamide]	7 nM	–	–	154 µg/mL (≈ 334 µM)
C[C@@H](CO)CCNC(=O)c1ccc2c(c1)CC[C@@H]1[C@@H]2CC[C@]2(C)C(c3cncc(F)c3)=CC[C@@H]12 [Example 12, 17-(5-fluoropyridin-3-yl)-N—[(R)-3-(hydroxymethyl)butyl]estra-1,3,5(10),16-tetraene-3-carboxamide]	21 nM and 20 nM	68 nM and 96 nM and 43 nM and 23 nM	–	–
C[C@]12CC[C@@H]3c4ccc(C(=O)NCc5nnn[nH]5)cc4CC[C@H]3[C@@H]1CC=C2c1cncc(F)c1 [Example 22, 17-(5-fluoropyridin-3-yl)-N-(1H-tetrazol-5-ylmethyl)oestra-1,3,5(10),16-tetraene-3-carboxamide]	5 nM	–	–	153 µg/mL (≈ 334 µM)
C[C@@H](CO)NC(=O)c1ccc2c(c1)CC[C@@H]1[C@@H]2CC[C@]2(C)C(c3cncc(F)c3)=CC[C@@H]12 [Example 40, 17-(5-fluoropyridin-3-yl)-N—[(S)-1-(hydroxymethyl)ethyl]oestra-1,3,5(10),16-tetraene-3-carboxamide]	–	–	–	145 µg/mL (≈ 334 µM)
C[C@]12CC[C@@H]3c4ccc(C(=O)N5CCC[C@H]5c5nnn[nH]5)cc4CC[C@H]3[C@@H]1CC=C2c1cncc(F)c1 [Example 28, 17-(5-fluoropyridin-3-yl)oestra-1,3,5(10),16-tetraen-3-yl (S)-2-(1H-tetrazol-5-yl)pyrrolidin-1-yl ketone]	9 nM	–	–	166 µg/mL (≈ 333 µM)
C[C@@H](O)CNC(=O)c1ccc2c(c1)CC[C@@H]1[C@@H]2CC[C@]2(C)C(c3cncc(F)c3)=CC[C@@H]12 [Example 38, 17-(5-fluoropyridin-3-yl)-N—[(R)-2-hydroxypropyl]oestra-1,3,5(10),16-tetraene-3-carboxamide]	4 nM	–	–	145 µg/mL (≈ 334 µM)
CC(C)[C@H](CO)NC(=O)c1ccc2c(c1)CC[C@@H]1[C@@H]2CC[C@]2(C)C(c3cncc(F)c3)=CC[C@@H]12 [Example 16, 17-(5-fluoropyridin-3-yl)-N—[(R)-1-(hydroxymethyl)-2-methylpropyl]oestra-1,3,5(10),16-tetraene-3-carboxamide]	15 nM and 42 nM	97 nM and 74 nM	–	–
CN(CC(O)CO)C(=O)c1ccc2c(c1)CC[C@@H]1[C@@H]2CC[C@]2(C)C(c3cncc(F)c3)=CC[C@@H]12 (mixture of isomers) [Example 35, N—[(RS)-2,3-dihydroxypropyl]-17-(5-fluoropyridin-3-yl)-N-methyloestra-1,3,5(10),16-tetraene-3-carboxamide]	17 nM	–	22 µg/mL	–
COCCNC(=O)c1ccc2c(c1)CC[C@@H]1[C@@H]2CC[C@]2(C)C(c3cncc(F)c3)=CC[C@@H]12 [Example 41, 17-(5-fluoropyridin-3-yl)-N-(2-methoxyethyl)oestra-1,3,5(10),16-tetraene-3-carboxamide]	8 nM	–	–	–
CC1(C)CC[C@@]2(CC[C@H]3[C@@H]4CCc5cc(C(N)=O)ccc5[C@H]4CC[C@@]32C)OC1=O [EM-1404, reference compound]	–	–	18 µg/mL (≈ 45.5 µM)	–
CNC(=O)[C@@H]1CCCN1C(=O)c1ccc2c(c1)CC[C@@H]1[C@@H]2CC[C@]2(C)C(c3cncc(F)c3)=CC[C@@H]12 [Example 29, 1-{[17-(5-fluoropyridin-3-yl)oestra-1,3,5(10),16-tetraen-3-yl]carbonyl}-N-methyl-L-prolinamide]	10 nM	–	–	24 µg/mL (≈ 49.2 µM)
C[C@]12CC[C@@H]3c4ccc(C(=O)N5CCC(O)CC5)cc4CC[C@H]3[C@@H]1CC=C2c1cncc(F)c1 [Example 14, 17-(5-fluoropyridin-3-yl)oestra-1,3,5(10),16-tetraen-3-yl 4-hydroxypiperidin-1-yl ketone]	54 nM and 37 nM	–	–	–
